10 molecules from patent US12589101B2, “Cyclodextrin protein drug conjugates” (Regeneron Pharmaceuticals, Inc., priority 2017, dated 2026) can be followed below.

For one data set, the target named is Cathepsin B (Homo sapiens, UniProt P07858). Nature of the data set: Cathepsin B cleavage rate of linker-payloads (Example 66). Format: biochemical. The conditions noted are these: Cathepsin B cleavage rate; for CapB (%): pH 5.0, 37° C.; for capB: Table 8A. As for the experimental part:
Step 1: Preparation of Cathepsin B buffer: 0.1 M NaOAc/0.01M DTT (pH5.0) Dissolve 8.3 g/L NaOAc, 1.54 g/L DTT in deionized water. Adjust pH to 5.0 with HCl/sodium hydroxide.
Step 2: Test Cleavage Rate
• 1. Prepare 25 μM of testing sample: To a 2-mL-tube was added 0.5 mg of testing sample, followed by the addition of 0.2 mL of DMSO. The solution was added dropwise into 0.8 mL of 0.1 M NaOAc/0.01 M DTT buffer. The obtained mixtures were sonicated for 5 minutes to obtain clear and colorless solutions. The pH value of the solution was around 5 according to pH test strip. • 2. Preheat assay buffer: 0.1 M NaOAc/0.01 M DTT (pH 5.0) • 3. Spiking solutions for test compounds: 25 μM Spiking solutions for test compounds: Add 2 μL of 5 mM stock solution into 398 μL of 0.1 M NaOAc/0.01 M DTT buffer (pH 5.0). • 4. Prepare 0.47 μg/μL Cathepsin B in 50 mM NaOAc/1 mM EDTA (pH 5.0). Put on ice. • 5. Without CA074 samples: Add 4 μL of 0.47 μg/μL Cathepsin B into 196 μL of 25 μM Spiking solutions (from step 2), incubate the tubes at 37° C. • 6. With CA074 samples: Add 4 μL of 0.47 μg/μL Cathepsin B with 4 μL of 10 mM Inhibitor (CA074) into 196 μL of 25 μM Spiking solutions (from step 2), incubate the tubes. • 7. After quenching, shake the plate and centrifuge them at 14000 rpm. • 8. Transfer 50 μL of the supernatant from each well into a 96-well sample plate containing 50 μL of ultra pure water (Millipore, ZMQS50F01) for LC/MS analysis. Step 3: Test reference compounds: • 9. Preheat assay buffer: 100 mM Na/K phosphate, pH 6.0, with 1.33 mM EDTA and 2 mM DTT. • 10. Prepare 0.024 μg/μL Cathepsin B: Add 1 μL of 0.47 μg/μL Cathepsin B stock into 19 μL of assay buffer (from step 11). • 11. Add 2 μL of 0.024 μg/μL Cathepsin B (from step 12) to a opaque 96-well plate. • 12. Add 96 μL of assay buffer to each sample. • 13. Add 2 μL of the 10 mM substrate Z-RR-MNA (200 μM final concentration). • 14. For negative control (With inhibitor), add 2 μL of 10 mM Inhibitor (CA074): Immediately read the samples in a kinetic mode at excitation of 340 nm/emission of 425 nm (Read the plate every 30 Second for 3 min). Step 4: Stability of Cathepsin B in incubation samples: • 15. Take 5 μL of incubation samples into 93 μL of assay buffer (from step 11), and then add 2 μL of 10 mM substrate (Z-RR-MNA). • 16. Incubate the samples at 37° C. for 2 min. • 17. Read the samples at excitation of 340 nm/emission of 425 nm.

The nature of data set [1]: Solubility of linker-payloads (LC-MS standard curve, saturated solution). The conditions noted are these: water, thermodynamic from solid. Format: physicochemical. As to the method:
The following test assays the solubility of the linker-payloads with a cyclodextrin moiety and the linker-payloads without a cyclodextrin moiety.
The test compounds were dissolved in DMSO to build a standard curve using LC-MS method A or B. The test sample was dissolved in water and sonicated for 10 minutes, and then centrifuged. The upper clear solution was analyzed using the same method A or B and the solubility was calculated based on its peak area.
Detailed test procedures were as follows: • 1. […] 0.05 mg of compound was suspended in water (1 mL) and sonicated for 10 minutes. After centrifugation, the clear solution above was collected to provide the saturated sample solution. • 3. All the standard solutions A, B, C, D, E and sample solution were analyzed by LCMS (using the same method and same injection volume) to obtain the peak areas. • 4. Calculate the standard curve according to the data of A-D (X=concentration, Y=peak areas). • 5. Calculate to obtain the concentration of saturated sample solution according to the functions obtained above.

By solubility is commonly meant the concentration that dissolves in the medium under given conditions.

SMILES strings stand for the structures. ≈ marks a conversion by molar mass, not a printed value. Read-outs that look alike come from different tables or passages of the source.

Turning to `CC[C@H](C)[C@@H]([C@@H](CC(=O)N1CCC[C@H]1[C@H](OC)[C@@H](C)C(=O)N[C@H](C)[C@@H](O)c1ccccc1)OC)N(C)C(=O)[C@@H](NC(=O)[C@H](C(C)C)N(C)C(=O)OCc1ccc(NC(=O)[C@H](CCCNC(N)=O)NC(=O)[C@@H](NC(=O)[C@@H](CCCCNC(=O)CCOCCOCCOCCOCCNC(=O)COC2CCCCCc3c2nnn3CC2OC3OC4C(CO)OC(OC5C(CO)OC(OC6C(CO)OC(OC7C(CO)OC(OC8C(CO)OC(OC2C(O)C3O)C(O)C8O)C(O)C7O)C(O)C6O)C(O)C5O)C(O)C4O)NC(=O)CCOCCOCCOCCOCCNC(=O)CCC(=O)N2Cc3ccccc3C#Cc3ccccc32)C(C)C)cc1)C(C)C` (stereo partly drawn) [Ex43], the “CapB (%)” value on Cathepsin B is reported as “% (50< % ≤60 CapB (%))”.

`CC(C)[C@H](NC(=O)[C@@H](CCCCNC(=O)COC1CCCCCc2c1nnn2CC1OC2OC3C(CO)OC(OC4C(CO)OC(OC5C(CO)OC(OC6C(CO)OC(OC7C(CO)OC(OC1C(O)C2O)C(O)C7O)C(O)C6O)C(O)C5O)C(O)C4O)C(O)C3O)NC(=O)CCOCCOCCOCCOCCNC(=O)OCC1C2CCC#CCCC21)C(=O)N[C@@H](C)C(=O)Nc1ccc2c(c1)[C@@]1(C)CCC[C@](C)(C(=O)NC(=O)[C@@]3(C)CCC[C@]4(C)c5cc(O)ccc5CC[C@@H]34)[C@@H]1CC2` (stereo partly drawn) [Ex54, BCN-PEG4-D-Lys(COT-CD)-Val-Ala-1d] gave a solubility at 10 min in data set [1] (Aq. Solubility (mg/mL)) of 300 µg/mL (≈ 124 µM).

For the molecule `CC(C)[C@H](NC(=O)[C@@H](CCCCNC(=O)CCOCCOCCOCCOCCNC(=O)COC1CCCCCc2nnn(CC3OC4OC5C(CO)OC(OC6C(CO)OC(OC7C(CO)OC(OC8C(CO)OC(OC9C(CO)OC(OC3C(O)C4O)C(O)C9O)C(O)C8O)C(O)C7O)C(O)C6O)C(O)C5O)c21)NC(=O)CCOCCOCCOCCOCCNC(=O)OCC1C2CCC#CCCC21)C(=O)N[C@@H](C)C(=O)Nc1ccc2c(c1)[C@@]1(C)CCC[C@](C)(C(=O)NC(=O)[C@@]3(C)CCC[C@]4(C)c5cc(O)ccc5CC[C@@H]34)[C@@H]1CC2` (stereo partly drawn) [Ex51, BCN-PEG4-D-Lys(PEG4-COT-CD)-Val-Ala-1d], the solubility at 10 min in data set [1] (Aq. Solubility (mg/mL)) was found to be 180 µg/mL (≈ 67.7 µM); in data set [1] (Solubility), 330 µg/mL (≈ 124 µM).

For the molecule `CCCC1O[C@@H]2C[C@H]3[C@@H]4C[C@H](F)C5=CC(=O)C=C[C@]5(C)[C@@]4(F)[C@@H](O)C[C@]3(C)[C@]2(C(=O)CNC(=O)OCc2ccc(NC(=O)[C@H](CCCNC(N)=O)NC(=O)[C@@H](NC(=O)[C@@H](CCCCNC(=O)COC3CCCCCc4c3nnn4CC3OC4OC5C(CO)OC(OC6C(CO)OC(OC7C(CO)OC(OC8C(CO)OC(OC9C(CO)OC(OC3C(O)C4O)C(O)C9O)C(O)C8O)C(O)C7O)C(O)C6O)C(O)C5O)NC(=O)CCOCCOCCOCCOCCNC(=O)OC[C@@H]3[C@@H]4CCC#CCC[C@@H]43)C(C)C)cc2)O1` (stereo partly drawn) [Ex60, BCN-PEG4-dLys(COT-CD)-vcPAB-1h], on Cathepsin B, the “CapB (%)” value is reported as “% (% ≤50 CapB (%))”.

Regarding `CC[C@H](C)[C@@H]([C@@H](CC(=O)N1CCC[C@H]1[C@H](OC)[C@@H](C)C(=O)N[C@H](C)[C@@H](O)c1ccccc1)OC)N(C)C(=O)[C@@H](NC(=O)[C@H](C(C)C)N(C)C(=O)OCc1ccc(NC(=O)[C@H](CCCNC(N)=O)NC(=O)[C@@H](NC(=O)[C@@H](CCCCNC(=O)CCC(=O)N2Cc3ccccc3C#Cc3ccccc32)NC(=O)CCCCCN2C(=O)CC(N3CCN(CC4OC5OC6C(CO)OC(OC7C(CO)OC(OC8C(CO)OC(OC9C(CO)OC(OC%10C(CO)OC(OC4C(O)C5O)C(O)C%10O)C(O)C9O)C(O)C8O)C(O)C7O)C(O)C6O)CC3)C2=O)C(C)C)cc1)C(C)C` (stereo partly drawn) [Ex38], the solubility at 10 min in data set [1] (aqueous, read-out: Aq. Solubility) was 500 µg/mL (≈ 180 µM); in data set [1] (read-out: Solubility), 250 µg/mL (≈ 90.2 µM).

With `CC(C)[C@H](NC(=O)[C@@H](CCCCNC(=O)CCOCCOCCOCCOCCNC(=O)COC1CCCCCc2nnn(CC3OC4OC5C(CO)OC(OC6C(CO)OC(OC7C(CO)OC(OC8C(CO)OC(OC9C(CO)OC(OC3C(O)C4O)C(O)C9O)C(O)C8O)C(O)C7O)C(O)C6O)C(O)C5O)c21)NC(=O)CCOCCOCCOCCOCCNC(=O)OCC1C2CCC#CCCC21)C(=O)N[C@@H](CCCNC(N)=O)C(=O)Nc1ccc(COC(=O)NCCOc2ccc3c(c2)[C@@]2(C)CCC[C@](C)(C(=O)NC(=O)[C@@]4(C)CCC[C@]5(C)c6cc(O)ccc6CC[C@@H]45)[C@@H]2CC3)cc1` (stereo partly drawn) [Ex52, BCN-PEG4-D-Lys(PEG4-COT-CD)-vcPAB-1e], the results for the solubility at 10 min in data set [1] (Aq. Solubility (mg/mL)) and in data set [1] (Solubility) were 300 µg/mL (≈ 102 µM) and 290 µg/mL (≈ 98.7 µM), respectively.

Take `CC[C@H](C)[C@@H]([C@@H](CC(=O)N1CCC[C@H]1[C@H](OC)[C@@H](C)C(=O)N[C@H](C)[C@@H](O)c1ccccc1)OC)N(C)C(=O)[C@@H](NC(=O)[C@H](C(C)C)N(C)C(=O)OCc1ccc(NC(=O)[C@H](CCCNC(N)=O)NC(=O)[C@@H](NC(=O)[C@@H](CCCCNC(=O)CCOCCOCCOCCOCCNC(=O)COC2CCCCCc3c2nnn3CC2OC3OC4C(CO)OC(OC5C(CO)OC(OC6C(CO)OC(OC7C(CO)OC(OC8C(CO)OC(OC2C(O)C3O)C(O)C8O)C(O)C7O)C(O)C6O)C(O)C5O)C(O)C4O)NC(=O)CCOCCOCCOCCOCCNC(=O)OC[C@@H]2[C@@H]3CCC#CCC[C@@H]32)C(C)C)cc1)C(C)C` (stereo partly drawn) [Ex44]: the “CapB (%)” value on Cathepsin B was “% (50< % ≤60 CapB (%))”.

On to `CC(C)[C@H](NC(=O)[C@@H](CCCCNC(=O)COC1CCCCCc2c1nnn2CC1OC2OC3C(CO)OC(OC4C(CO)OC(OC5C(CO)OC(OC6C(CO)OC(OC7C(CO)OC(OC1C(O)C2O)C(O)C7O)C(O)C6O)C(O)C5O)C(O)C4O)C(O)C3O)NC(=O)CCOCCOCCOCCOCCNC(=O)CCC(=O)N1Cc2ccccc2C#Cc2ccccc21)C(=O)N[C@@H](CCCNC(N)=O)C(=O)Nc1ccc(COC(=O)N[C@@H](CO)C(=O)Nc2ccc3c(c2)[C@@]2(C)CCC[C@](C)(C(=O)NC(=O)[C@@]4(C)CCC[C@]5(C)c6cc(O)ccc6CC[C@@H]45)[C@@H]2CC3)cc1` (stereo partly drawn) [Ex56, DIBAC-suc-PEG4-D-Lys(COT-CD)-vcPAB-1g], for which the solubility at 10 min in data set [1] (Aq. Solubility (mg/mL)) and in data set [1] (Solubility) was below 100 µg/mL in each case.

In turn, `CC(C)[C@H](NC(=O)[C@@H](CCCCNC(=O)COC1CCCCCc2c1nnn2CC1OC2OC3C(CO)OC(OC4C(CO)OC(OC5C(CO)OC(OC6C(CO)OC(OC7C(CO)OC(OC8C(CO)OC(OC9C(CO)OC(OC1C(O)C2O)C(O)C9O)C(O)C8O)C(O)C7O)C(O)C6O)C(O)C5O)C(O)C4O)C(O)C3O)NC(=O)CCOCCOCCOCCOCCNC(=O)CCC(=O)N1Cc2ccccc2C#Cc2ccccc21)C(=O)N[C@@H](C)C(=O)Nc1ccc2c(c1)[C@@]1(C)CCC[C@](C)(C(=O)NC(=O)[C@@]3(C)CCC[C@]4(C)c5cc(O)ccc5CC[C@@H]34)[C@@H]1CC2` (stereo partly drawn) [Ex57, DIBAC-suc-PEG4-D-Lys(COT-CD)-vcPAB-1d] showed a capB on Cathepsin B of 8.3%.

Regarding `CCCC1O[C@@H]2C[C@H]3[C@@H]4C[C@H](F)C5=CC(=O)C=C[C@]5(C)[C@@]4(F)[C@@H](O)C[C@]3(C)[C@]2(C(=O)COc2ccc(NC(=O)OCc3ccc(NC(=O)[C@H](CCCNC(N)=O)NC(=O)[C@@H](NC(=O)[C@@H](CCCCNC(=O)COC4CCCCCc5c4nnn5CC4OC5OC6C(CO)OC(OC7C(CO)OC(OC8C(CO)OC(OC9C(CO)OC(OC%10C(CO)OC(OC4C(O)C5O)C(O)C%10O)C(O)C9O)C(O)C8O)C(O)C7O)C(O)C6O)NC(=O)CCOCCOCCOCCOCCNC(=O)CCC(=O)N4Cc5ccccc5C#Cc5ccccc54)C(C)C)cc3)cc2)O1` (stereo partly drawn) [Ex62, DIBAC-suc-PEG4-dLys(COT-CD)-vcPAB-1i], at Cathepsin B, the capB is 12.8% and the “CapB (%)” value is reported as “% (% ≤50 CapB (%))”.
